Data as given in PubChem BioAssay (NCI).
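Test compounds were applied to cells in 96-well plates for 48 hours at 5 doses. GI50 marks 50% less growth. TGI: total growth inhibition.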

What was measured:
Test in all cases: NCI anticancer screen, dose series, 48 h
[1] = system: NCI-H23 lung
[2] = system: SN12C renal
[3] = system: SK-OV-3 ovarian
[4] = system: LOX IMVI melanoma
[5] = system: NCI/ADR-RES ovarian
[6] = system: CAKI-1 renal
[7] = system: RXF 393 renal
[8] = system: HCC-2998 colon
[9] = system: SF-295 CNS
[10] = system: SK-MEL-5 melanoma
[11] = system: CCRF-CEM leukemia
[12] = system: SR leukemia
[13] = system: MDA-MB-231 breast
[14] = system: ACHN renal
[15] = system: HS 578T breast
[16] = system: UACC-62 melanoma
[17] = system: UACC-257 melanoma
[18] = system: MOLT-4 leukemia
[19] = system: SNB-19 CNS
[20] = system: SW-620 colon
[21] = system: M14 melanoma
[22] = system: COLO 205 colon
[23] = system: OVCAR-3 ovarian
[24] = system: TK-10 renal
[25] = system: OVCAR-4 ovarian
[26] = system: SK-MEL-2 melanoma
[27] = system: HOP-92 NSCLC
[28] = system: A498 renal

Question: With `Nc1c(C(=O)Nc2cccc(C(F)(F)F)c2)sc2nc3c(cc12)CCCCCC3` as the compound, how does the GI50 [1] read?
Answer: 2.39 µM

Question: And the TGI [1]?
Answer: 10.6 µM

Question: And the GI50 [2]?
Answer: 3.15 µM

Question: What about the TGI [2] of the same compound?
Answer: 13 µM

Question: And the GI50 [3]?
Answer: 2.26 µM

Question: What about the TGI [3] of the same compound?
Answer: 6.29 µM

Question: What about the GI50 [4] of the same compound?
Answer: 3.04 µM

Question: What about the TGI [4] of the same compound?
Answer: 11.2 µM

Question: What about the GI50 [5] of the same compound?
Answer: 2.69 µM

Question: And the TGI [5]?
Answer: 10.9 µM

Question: And the GI50 [6]?
Answer: 2.49 µM

Question: And the TGI [6]?
Answer: 10.2 µM

Question: What about the GI50 [7] of the same compound?
Answer: 1.63 µM

Question: What about the TGI [7] of the same compound?
Answer: 3.21 µM

Question: What about the GI50 [8] of the same compound?
Answer: 12.3 µM

Question: What about the TGI [8] of the same compound?
Answer: > 100 µM

Question: And the GI50 [9]?
Answer: 1.58 µM

Question: What about the TGI [9] of the same compound?
Answer: 3.6 µM

Question: And the GI50 [10]?
Answer: 2.15 µM

Question: What about the TGI [10] of the same compound?
Answer: 15 µM

Question: What about the GI50 [11] of the same compound?
Answer: 5.73 µM

Question: And the TGI [11]?
Answer: > 100 µM

Question: What about the GI50 [12] of the same compound?
Answer: 3.77 µM

Question: And the TGI [12]?
Answer: 19 µM

Question: And the GI50 [13]?
Answer: 3.09 µM

Question: And the TGI [13]?
Answer: 10.6 µM

Question: And the GI50 [14]?
Answer: 1.85 µM

Question: And the TGI [14]?
Answer: 4.46 µM

Question: What about the GI50 [15] of the same compound?
Answer: 3.25 µM

Question: What about the TGI [15] of the same compound?
Answer: 9.92 µM

Question: And the GI50 [16]?
Answer: 3.25 µM

Question: And the TGI [16]?
Answer: 21.5 µM

Question: What about the GI50 [17] of the same compound?
Answer: 4.37 µM

Question: And the TGI [17]?
Answer: 22.7 µM

Question: And the GI50 [18]?
Answer: 11.1 µM

Question: What about the TGI [18] of the same compound?
Answer: 35.1 µM

Question: And the GI50 [19]?
Answer: 3.16 µM

Question: And the TGI [19]?
Answer: 13.1 µM

Question: And the GI50 [20]?
Answer: 3.75 µM

Question: What about the TGI [20] of the same compound?
Answer: 21.2 µM

Question: And the GI50 [21]?
Answer: 3.4 µM

Question: What about the TGI [21] of the same compound?
Answer: 18 µM

Question: And the GI50 [22]?
Answer: 3.07 µM

Question: And the TGI [22]?
Answer: 14 µM

Question: And the GI50 [23]?
Answer: 2.17 µM

Question: What about the TGI [23] of the same compound?
Answer: 4.88 µM

Question: What about the GI50 [24] of the same compound?
Answer: 2.18 µM

Question: And the TGI [24]?
Answer: 5.82 µM

Question: And the GI50 [25]?
Answer: 1.61 µM

Question: And the TGI [25]?
Answer: 4 µM

Question: What about the GI50 [26] of the same compound?
Answer: 4.35 µM

Question: And the TGI [26]?
Answer: 18.2 µM

Question: And the GI50 [27]?
Answer: 1.7 µM

Question: And the TGI [27]?
Answer: 4.86 µM

Question: What about the GI50 [28] of the same compound?
Answer: 1.39 µM
